The values that follow are results of earlier work, collected in patent US20080089844A1 (priority 2002, published 2008).

The data set deals with F425G Shaker mutation (Drosophila melanogaster, UniProt P08510, F425G). The note with it: cited from earlier work.
F425G Shaker mutation, sequence (P08510 whole entry F425G, looked up): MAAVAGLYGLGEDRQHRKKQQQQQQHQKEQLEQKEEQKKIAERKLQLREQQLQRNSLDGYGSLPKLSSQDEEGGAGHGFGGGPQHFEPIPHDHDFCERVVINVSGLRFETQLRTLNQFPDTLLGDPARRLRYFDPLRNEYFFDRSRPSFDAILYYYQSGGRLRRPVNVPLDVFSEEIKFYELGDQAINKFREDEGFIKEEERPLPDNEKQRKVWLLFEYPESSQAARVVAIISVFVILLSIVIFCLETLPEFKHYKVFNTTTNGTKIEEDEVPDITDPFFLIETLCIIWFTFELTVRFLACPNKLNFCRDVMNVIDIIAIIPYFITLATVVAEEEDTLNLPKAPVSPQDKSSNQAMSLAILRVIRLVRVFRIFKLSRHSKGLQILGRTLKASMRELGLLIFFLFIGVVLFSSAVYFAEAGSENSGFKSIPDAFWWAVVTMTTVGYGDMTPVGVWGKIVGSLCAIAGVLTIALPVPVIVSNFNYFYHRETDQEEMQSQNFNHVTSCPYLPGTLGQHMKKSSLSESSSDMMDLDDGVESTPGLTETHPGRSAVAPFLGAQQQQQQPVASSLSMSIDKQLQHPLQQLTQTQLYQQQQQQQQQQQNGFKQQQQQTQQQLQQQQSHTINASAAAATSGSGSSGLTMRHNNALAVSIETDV

As to charybdotoxin [reference compound], the “effect of F425G Shaker mutation on charybdotoxin affinity” value is listed as “increases charybdotoxin affinity by three orders of magnitude”.
